Values joined by “and” are separate entries in the source; they are usually repeats but may differ in a detail not shown here. Identical values can stand only once.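 96-well plates; 48 h exposure; 5 concentrations. Endpoints by linear interpolation between flanking doses. Not reached: highest tested concentration assigned. Abbreviation: GI50, concentration required for 50% inhibition of growth. At the TGI there is no net growth.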
Legend:
Assay in all cases: NCI tumour cell line growth inhibition, 48 h
EKVX NSCLC = test system: EKVX NSCLC
HOP-92 NSCLC = test system: HOP-92 NSCLC
MOLT-4 leukemia = test system: MOLT-4 leukemia
NCI-H460 lung = test system: NCI-H460 lung
RPMI-8226 leukemia = test system: RPMI-8226 leukemia
SF-539 CNS = test system: SF-539 CNS
SK-MEL-28 melanoma = test system: SK-MEL-28 melanoma
SW-620 colon = test system: SW-620 colon
UACC-257 melanoma = test system: UACC-257 melanoma
UACC-62 melanoma = test system: UACC-62 melanoma

SMILES | GI50 (EKVX NSCLC) | TGI (EKVX NSCLC) [µM] | GI50 (HOP-92 NSCLC) [µM] | TGI (HOP-92 NSCLC) | GI50 (MOLT-4 leukemia) [µM] | TGI (MOLT-4 leukemia) [µM] | GI50 (NCI-H460 lung) [µM] | TGI (NCI-H460 lung) [µM] | GI50 (RPMI-8226 leukemia) | TGI (RPMI-8226 leukemia) [µM] | GI50 (SF-539 CNS) [µM] | TGI (SF-539 CNS) | GI50 (SK-MEL-28 melanoma) [µM] | TGI (SK-MEL-28 melanoma) [µM] | GI50 (SW-620 colon) [µM] | TGI (SW-620 colon) | GI50 (UACC-257 melanoma) [µM] | TGI (UACC-257 melanoma) | GI50 (UACC-62 melanoma) [µM] | TGI (UACC-62 melanoma)
O=C(N/N=C/c1ccccc1O)c1ccccc1 | 2 µM | > 100 | 5.84 | > 100 µM | 0.503 | > 100 | 1.18 | > 100 | 0.583 µM | 8.52 | 3.19 | 66.8 µM | 6.69 | > 100 | 2.84 | > 100 µM | 3.47 | 37.1 µM | 1.87 | 7.16 µM
O=c1oc2ccccc2[n+]([O-])c1-c1ccccc1 |  | > 100 |  | > 100 µM |  | > 100 |  | > 100 |  | > 100 |  | > 100 µM |  | > 100 |  | > 100 µM |  | > 100 µM |  | > 100 µM
COC(=O)C1(C)Cc2cc(OC(C)=O)c(OC(C)=O)cc2N1 (stereo not given) | 15.7 µM | 49 | 2.19 | 8.69 µM | 8.18 | > 60.2 | 32.8 | > 100 | 1.87 µM | 10.6 | 15.4 | 33.2 µM | 13.8 | 32.3 | 8.83 | 28.7 µM | 1.68 | 11.4 µM | 4.09 | 17.5 µM
CNC(=O)c1nn(C)c2c1C(C)(C)Cc1cnc(Nc3ccc(N4CCN(C)CC4)cc3)nc1-2 | 1.93 µM | > 10 | 0.174 | > 2.35 µM | 0.546 | > 5.29 | 0.408 | > 10 | 0.475 µM | > 3.98 | 1.39 | > 6.03 µM | 2.32 | > 10 | 0.608 | > 10 µM | 0.863 | > 9.15 µM | 0.486 | > 10 µM
CC(C)(C)c1cc(C=C(C#N)C#N)cc(C(C)(C)C)c1O | 0.518 µM and 0.825 µM | 46.3 | 0.212 | 0.768 µM and 0.139 µM |  | 10.6 | 0.305 | 21.9 | 0.101 µM and 0.0877 µM |  | 0.376 | 10.2 µM and 3.24 µM | 0.778 | 43.6 | 0.462 | 30.9 µM and 45.4 µM |  | 0.898 µM and 3.27 µM |  | 8.29 µM and 19.3 µM
CC(=O)OCC1OC(N2C(=O)C(=O)c3ccccc32)C(OC(C)=O)C(OC(C)=O)C1OC(C)=O (stereo not given) |  | > 100 |  | > 100 µM |  | > 100 |  | > 100 |  | > 100 |  | > 100 µM |  | > 100 |  | > 100 µM |  | > 100 µM |  | > 100 µM
O=c1c2cc(Br)ccc2nc(CCl)n1-c1ccc(O)c([N+](=O)[O-])c1 |  | 31.4 |  | 56.6 µM |  | 53.5 |  | > 100 |  | 47.8 |  | 33.5 µM |  | 32.3 |  | 35.2 µM |  | 48.2 µM |  | 72.5 µM
O=C1CCCCN1CCCCC#Cc1cccc(C#Cc2cccnc2)c1 | 23.5 µM | > 100 | 19.2 | > 100 µM | 73.1 | > 100 | 19.6 | > 100 | 4.64 µM | 28.7 | 31.8 | > 100 µM | 38.7 | > 100 | 39.9 | > 100 µM | 17.7 | 49.6 µM | 4.82 | 16.9 µM
Cc1cc(N(CCC#N)CCC#N)ccc1/C=C(\NC(=O)/C=C/c1ccccc1)C(=O)NN |  | > 100 |  | 63.7 µM |  | > 100 |  | > 100 |  | > 100 |  | > 100 µM |  | > 100 |  | > 100 µM |  | > 100 µM |  | > 100 µM
C=CC(OCC)(OCC)OCC |  | > 100 |  | > 100 µM |  | > 100 |  | > 100 |  | > 100 |  | > 100 µM |  | > 100 |  |  |  | > 100 µM |  | > 100 µM
O=C(O)[C@H](c1ccccc1)[C@@H](C(=O)O)c1ccccc1 |  | > 100 |  | > 100 µM |  | > 100 |  | > 100 |  | > 100 |  | > 100 µM |  | > 100 |  | > 100 µM |  | > 100 µM |  | > 100 µM
CSC(=S)N/N=C/c1nccc2ccccc12 |  | 12.8 |  | 6.36 µM |  | 3.65 |  | 6.12 |  | 11.6 |  | 4.83 µM |  | > 79.8 |  | 18.8 µM |  | 15.5 µM |  | 6.08 µM
CCCCCCCCCCCCCCCC[N+]1(C)CCOCC1 | 3.42 µM | 20.1 | 0.499 | 2.64 µM | 1.6 | 3.69 | 1.96 | 4.73 | 1.3 µM | 4.06 | 1.87 | 4.07 µM | 2.42 | 7.69 | 2.05 | 10.4 µM | 4 | 17.2 µM | 1.61 | 3.83 µM
Nc1ncnc2c1ncn2CC(O)CO (stereo not given) |  | > 100 |  | > 100 µM |  | > 100 |  | > 100 |  | > 100 |  | > 100 µM |  | > 100 |  | > 100 µM |  | > 100 µM |  | > 100 µM
Cc1ccccc1C(=O)N1CCN(C(=O)c2ccccc2C)CC1 |  | > 100 |  | > 100 µM |  | > 100 |  | > 100 |  | > 100 |  | > 100 µM |  | > 100 |  | > 100 µM |  | > 100 µM |  | > 100 µM
N#CNC(N)=Nc1ccc(Cl)cc1 |  | > 100 |  | > 100 µM |  | > 100 |  | > 100 |  | > 100 |  | > 100 µM |  | > 100 |  | > 100 µM |  | > 100 µM |  | > 100 µM
O=C(O)c1ccccc1/C=N/N=C1c2ccccc2-c2ccccc21 |  | > 100 |  | > 100 µM |  | 71 |  | 70.2 |  | 48.2 |  | > 100 µM |  | > 100 |  | > 100 µM |  | > 100 µM |  | > 100 µM
